The values below come from patent publication US7495027B2, “3-aryl-4-hydroxyfuranone compounds and the human and animal health use thereof” (Wyeth, priority 2003, dated 2009).

One may read the IC50 as the concentration at which inhibition is half-maximal. The MIC is the lowest concentration found to suppress growth.

Values after ≈ are worked out from the molar mass of the structure shown.

E. coli Enopyruvyl-UPD-N-acetylglucosamine reductase, Mur B, sequence (P08373 whole entry): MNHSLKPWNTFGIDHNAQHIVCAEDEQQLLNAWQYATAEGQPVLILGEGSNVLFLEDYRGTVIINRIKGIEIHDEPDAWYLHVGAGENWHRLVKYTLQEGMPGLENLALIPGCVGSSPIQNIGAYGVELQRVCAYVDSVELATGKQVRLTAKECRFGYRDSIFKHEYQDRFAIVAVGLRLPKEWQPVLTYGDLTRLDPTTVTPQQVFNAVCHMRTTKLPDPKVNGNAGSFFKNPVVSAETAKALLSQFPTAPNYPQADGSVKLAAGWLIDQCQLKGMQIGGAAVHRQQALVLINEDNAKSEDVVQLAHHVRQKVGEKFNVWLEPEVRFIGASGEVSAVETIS
E. coli Uridine-diphosphate-N-acetvimuramoyl: L-alanine lipase, MurC, sequence (P17952 whole entry): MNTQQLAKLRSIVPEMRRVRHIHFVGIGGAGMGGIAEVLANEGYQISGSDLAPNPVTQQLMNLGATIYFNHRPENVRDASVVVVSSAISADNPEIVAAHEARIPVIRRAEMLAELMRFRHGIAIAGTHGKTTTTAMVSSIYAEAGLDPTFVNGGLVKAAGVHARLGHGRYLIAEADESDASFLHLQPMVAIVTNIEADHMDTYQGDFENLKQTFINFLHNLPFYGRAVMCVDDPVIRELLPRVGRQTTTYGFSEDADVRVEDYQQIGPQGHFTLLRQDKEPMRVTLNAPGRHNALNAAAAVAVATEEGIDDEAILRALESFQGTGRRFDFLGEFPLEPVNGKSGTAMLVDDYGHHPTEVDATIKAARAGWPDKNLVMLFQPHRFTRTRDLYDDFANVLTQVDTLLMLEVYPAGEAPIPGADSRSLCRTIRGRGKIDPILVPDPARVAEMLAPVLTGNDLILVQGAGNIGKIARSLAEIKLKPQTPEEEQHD
E. coli UDP-N-acetylglucosamine enolpyruvoyl transferase, MurA, sequence (P0A749 whole entry): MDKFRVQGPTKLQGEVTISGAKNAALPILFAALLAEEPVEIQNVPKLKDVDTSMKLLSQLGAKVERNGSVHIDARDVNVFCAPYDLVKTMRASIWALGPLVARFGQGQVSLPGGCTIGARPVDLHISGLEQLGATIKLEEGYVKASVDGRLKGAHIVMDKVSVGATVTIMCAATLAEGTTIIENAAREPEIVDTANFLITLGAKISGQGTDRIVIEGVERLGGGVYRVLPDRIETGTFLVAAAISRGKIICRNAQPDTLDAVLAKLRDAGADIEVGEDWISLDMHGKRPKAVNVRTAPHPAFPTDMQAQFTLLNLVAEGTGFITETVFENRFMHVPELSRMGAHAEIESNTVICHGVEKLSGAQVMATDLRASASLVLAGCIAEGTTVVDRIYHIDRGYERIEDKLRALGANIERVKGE

One test concerns the target E. coli UDP-N-acetylglucosamine enolpyruvoyl transferase, MurA (Escherichia coli, UniProt P0A749). Nature of the test: biochemical. As to conditions: (E) E. coli enzyme. On the procedure:
Evaluation of the Inhibitory Activity of Test Compounds Against Enzymes which Catalyze Bacterial Cell Wall Biosynthesis
S. aureus and E. coli UDP-N-acetylglucosamine enolpyruvoyl transferase, MurA
(§1) Preparation of Enzyme Solution:
The enzyme solution is prepared by admixing the following: 50 mM Tris/HCl pH 8.0, […] 1 M Tris, 5 mM DTT, […] 1 M DTT, 20% Glycerol 4 ml 50% Glycerol, add water to 10 ml.
(§2) Preparation of Stop Solution:
A procedure similar to that described by C. […] Experiments are performed by adding a solution of test compound (in a mixture of dimethylsulfoxide and water) and an enzyme solution to a well. After a pre-incubation period of 10 mintues at 37° C., Tris/BME buffer and assay buffer are added. A start point optical density (OD0) reading is taken at 340 nm immediately following the addition of assay buffer. After incubation for 1 hr at 37° C., the stop solution is added and the color is allowed to develop for 30 minutes.
For the molecule `CCOc1ccc(-c2ccc(C3=C(O)/C(=C/c4cc(C(F)(F)F)ccc4Cl)OC3=O)cc2)cc1` [Example 129], the IC50 is 4.11 µM.
The same measure, in the same setting: with `CCCc1ccc(-c2ccc(C3=C(O)/C(=C/c4cccc(C(F)(F)F)c4)OC3=O)cc2)cc1` [Example 131] the figure was 8.88 µM; with `CC(C)(C)c1ccc(-c2ccc(C3=C(O)/C(=C/c4cccc(C(F)(F)F)c4)OC3=O)cc2)cc1` [Example 132], 6.46 µM; with `CCOc1ccc(-c2ccc(C3=C(O)/C(=C/c4cccc(C(F)(F)F)c4)OC3=O)cc2)cc1` [Example 133], 44.2 µM.

In the next test the target is E. coli Enopyruvyl-UPD-N-acetylglucosamine reductase, Mur B (Escherichia coli, UniProt P08373). Nature of the test: biochemical. As to conditions: (E) E. coli enzyme; read-out: MurB IC50 (converted). As to the method:
S. aureus and E. coli Enopyruvyl-UPD-N-acetylglucosamine reductase, Mur B
Preparation of Tris/BME buffer:
Dilute 17.5 uL of aqueous 5 mM BME (2-mercaptoethanol) to 50 mL with 50 mM Tris/HCl (pH 8.0).
as §1
Dilute aqueous MurB stock solution (0.94 mg/mL) with 200 parts 50 mM Tris/2-BME buffer.
Synthesis of Substrate for MurB (MurA Product EP-UDP-GluNAc):
A mixture of 13 mg UDP-N-acetylglucosamine and 5.5 mg phosphoenolpyruvate are dissolved in 10 mL Tris/BME buffer forming 2 mM concentrations of each reagent in solution.
Preparation of Assay Buffer:
The assay buffer is prepared in water from reagents with the following final concentrations: 100 mM Tris/HCl (pH 8.0), 200 μM NADPH, 100 μM MurB substrate, 10 μM 2-mercaptoethanol, and 10 μM KCl.
Experiments are performed by adding 20 μL of a solution of test compound in a mixture of dimethylsulfoxide and water and 30 μL of enzyme solution to a well. After a pre-incubation period of 20 mins. at 23° C., 50 μL of Tris/BME buffer and 100 μL of assay buffer are added. […] Controls are performed using the same procedure and employing 20 μL of a blank dimethylsulfonide and solvent mixture in place of the test compound solution.
Using these values, the IC50 for each test compound is determined by linear regression analysis.
For `CCOc1ccc(-c2ccc(C3=C(O)/C(=C/c4cc(C(F)(F)F)ccc4Cl)OC3=O)cc2)cc1` [Example 129], the IC50 was 4.11 µM.
Turning to `CCCc1ccc(-c2ccc(C3=C(O)/C(=C/c4cccc(C(F)(F)F)c4)OC3=O)cc2)cc1` [Example 131], the IC50 was 4.44 µM.
For `CC(C)(C)c1ccc(-c2ccc(C3=C(O)/C(=C/c4cccc(C(F)(F)F)c4)OC3=O)cc2)cc1` [Example 132], the IC50 was 6.46 µM.
As to `CCOc1ccc(-c2ccc(C3=C(O)/C(=C/c4cccc(C(F)(F)F)c4)OC3=O)cc2)cc1` [Example 133], the IC50 is 26.5 µM.

A further test has as its target E. coli Uridine-diphosphate-N-acetvimuramoyl: L-alanine lipase, MurC (Escherichia coli, UniProt P17952). The test is described as follows: Inhibitory activity against MurC (E. coli). The format is biochemical. As to conditions: (E) E. coli enzyme; read-out: MurC IC50 (converted).
As to `CCOc1ccc(-c2ccc(C3=C(O)/C(=C/c4cc(C(F)(F)F)ccc4Cl)OC3=O)cc2)cc1` [Example 129], the IC50 is 14.4 µM.
Take `CCCc1ccc(-c2ccc(C3=C(O)/C(=C/c4cccc(C(F)(F)F)c4)OC3=O)cc2)cc1` [Example 131]: the IC50 is 40 µM.
Turning to `CC(C)(C)c1ccc(-c2ccc(C3=C(O)/C(=C/c4cccc(C(F)(F)F)c4)OC3=O)cc2)cc1` [Example 132], the IC50 is 51.7 µM.
Same read-out and setting: with `CCOc1ccc(-c2ccc(C3=C(O)/C(=C/c4cccc(C(F)(F)F)c4)OC3=O)cc2)cc1` [Example 133] the figure was 48.6 µM.

The target of another test is E. coli Uridine-diphosphate-N-acetylmuramoyl-L-alanine: D-glutamate liease, MurD (Escherichia coli, UniProt P14900). The test is described as follows: biochemical. As to conditions: (E) E. coli enzyme. As to the method: S. aureus and E. coli Uridine-diphosphate-N-acetylmuramoyl-L-alanine: D-glutamate liease, MurD
E. coli Uridine-diphosphate-N-acetylmuramoyl-L-alanine: D-glutamate liease, MurD, sequence (P14900 whole entry): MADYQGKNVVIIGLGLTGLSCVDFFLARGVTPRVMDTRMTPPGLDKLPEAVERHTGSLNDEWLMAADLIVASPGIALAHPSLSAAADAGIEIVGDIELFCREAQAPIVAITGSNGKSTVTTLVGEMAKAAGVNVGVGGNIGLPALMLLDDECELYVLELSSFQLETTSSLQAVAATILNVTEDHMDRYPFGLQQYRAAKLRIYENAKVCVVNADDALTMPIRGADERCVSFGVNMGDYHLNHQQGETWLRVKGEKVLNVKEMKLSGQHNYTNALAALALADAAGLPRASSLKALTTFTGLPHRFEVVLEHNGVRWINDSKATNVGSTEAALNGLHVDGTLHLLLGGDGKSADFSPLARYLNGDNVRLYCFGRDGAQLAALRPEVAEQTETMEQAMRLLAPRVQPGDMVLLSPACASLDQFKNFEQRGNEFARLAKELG
The buffer is prepared from aqueous reagents with the following final concentrations: 83 mM Tris/HCl (pH 8.0), 50 mM MgCl2, and 2 mM ATP.
as §1
Preparation of Test Compound Solutions:
All test solutions are prepared in DMSO as 10 mg/mL, then diluted with 50 mM Tris/HCl (pH 8.5) to 100 μg/mL.
as §2
In this evaluation, the inhibitory activity of a test compound against MurD, the enzyme which catalyzes the fourth step of bacterial cell wall biosynthesis is determined.
Molecule `CCOc1ccc(-c2ccc(C3=C(O)/C(=C/c4cc(C(F)(F)F)ccc4Cl)OC3=O)cc2)cc1` [Example 129] showed a 50% inhibitory concentration (IC50) of 14.4 µM.
The same measure, in the same setting: with `CCCc1ccc(-c2ccc(C3=C(O)/C(=C/c4cccc(C(F)(F)F)c4)OC3=O)cc2)cc1` [Example 131] the figure was 20 µM; with `CC(C)(C)c1ccc(-c2ccc(C3=C(O)/C(=C/c4cccc(C(F)(F)F)c4)OC3=O)cc2)cc1` [Example 132], 17.2 µM.
As to `CCOc1ccc(-c2ccc(C3=C(O)/C(=C/c4cccc(C(F)(F)F)c4)OC3=O)cc2)cc1` [Example 133], half-maximal inhibition (IC50) required 48.6 µM.

The subject of a further test is staphylococci. Nature of the test: Minimum inhibitory concentration, microdilution broth method, staphylococci. It is filed as cell-based. Conditions: Staphylococcus aureus, S. aureus GC 1131; Mueller-Hinton broth, 18-22 hours at 35° C.; read-out: MIC S. aureus GC 1131. The essentials:
(§3)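 MIC by microdilution, NCCLS M7-A5. Media: MH broth (staph, enterococci); MH + 5% lysed horse blood (strep). Strains incl. methicillin-, penicillin- and/or vancomycin-resistant clinical isolates.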
A general note: Broth dilution looks for growth in wells or tubes with falling amounts of substance.
For the molecule `CCOc1ccc(-c2ccc(C3=C(O)/C(=C/c4cc(C(F)(F)F)ccc4Cl)OC3=O)cc2)cc1` [Example 129], the MIC was determined as 2 µg/mL (≈ 4.11 µM).
Regarding `CCCc1ccc(-c2ccc(C3=C(O)/C(=C/c4cccc(C(F)(F)F)c4)OC3=O)cc2)cc1` [Example 131], the MIC was 32 µg/mL (≈ 71 µM).
For `CC(C)(C)c1ccc(-c2ccc(C3=C(O)/C(=C/c4cccc(C(F)(F)F)c4)OC3=O)cc2)cc1` [Example 132], the MIC came out at 16 µg/mL (≈ 34.4 µM).
The same measure, in the same setting: with `CCOc1ccc(-c2ccc(C3=C(O)/C(=C/c4cccc(C(F)(F)F)c4)OC3=O)cc2)cc1` [Example 133] the figure was 32 µg/mL (≈ 70.7 µM).

Still in this test, the particulars now being: Staphylococcus aureus, S. aureus GC 4543; Mueller-Hinton broth, 18-22 hours at 35° C.; read-out: MIC S. aureus GC 4543.
As to `CCOc1ccc(-c2ccc(C3=C(O)/C(=C/c4cc(C(F)(F)F)ccc4Cl)OC3=O)cc2)cc1` [Example 129], the MIC was 2 µg/mL (≈ 4.11 µM).
The same measure, in the same setting: with `CCCc1ccc(-c2ccc(C3=C(O)/C(=C/c4cccc(C(F)(F)F)c4)OC3=O)cc2)cc1` [Example 131] the figure was 16 µg/mL (≈ 35.5 µM).
As to `CC(C)(C)c1ccc(-c2ccc(C3=C(O)/C(=C/c4cccc(C(F)(F)F)c4)OC3=O)cc2)cc1` [Example 132], the MIC is 16 µg/mL (≈ 34.4 µM).
Consider `CCOc1ccc(-c2ccc(C3=C(O)/C(=C/c4cccc(C(F)(F)F)c4)OC3=O)cc2)cc1` [Example 133], for which the MIC turned out to be 32 µg/mL (≈ 70.7 µM).

The next test concerns enterococci. Nature of the test: Minimum inhibitory concentration, microdilution broth method, enterococci. Conditions: Enterococcus faecalis, E. faecalis GC 2242; Mueller-Hinton broth, 18-22 hours at 35° C.; read-out: MIC E. faecalis GC 2242. The format is cell-based. The method, boiled down:
as §3
For the molecule `CCOc1ccc(-c2ccc(C3=C(O)/C(=C/c4cc(C(F)(F)F)ccc4Cl)OC3=O)cc2)cc1` [Example 129], the MIC amounted to 2 µg/mL (≈ 4.11 µM).
`CCCc1ccc(-c2ccc(C3=C(O)/C(=C/c4cccc(C(F)(F)F)c4)OC3=O)cc2)cc1` [Example 131]: the MIC was 4 µg/mL (≈ 8.88 µM).
For the molecule `CC(C)(C)c1ccc(-c2ccc(C3=C(O)/C(=C/c4cccc(C(F)(F)F)c4)OC3=O)cc2)cc1` [Example 132], the MIC came out at 4 µg/mL (≈ 8.61 µM).
As to `CCOc1ccc(-c2ccc(C3=C(O)/C(=C/c4cccc(C(F)(F)F)c4)OC3=O)cc2)cc1` [Example 133], the MIC was determined as 8 µg/mL (≈ 17.7 µM).

Still in this test, the particulars now being: Enterococcus faecalis, E. faecalis GC 4555; Mueller-Hinton broth, 18-22 hours at 35° C.; read-out: MIC E. faecalis GC 4555.
Turning to `CCOc1ccc(-c2ccc(C3=C(O)/C(=C/c4cc(C(F)(F)F)ccc4Cl)OC3=O)cc2)cc1` [Example 129], the MIC worked out at 4 µg/mL (≈ 8.22 µM).
The same measure, in the same setting: with `CCCc1ccc(-c2ccc(C3=C(O)/C(=C/c4cccc(C(F)(F)F)c4)OC3=O)cc2)cc1` [Example 131] the figure was 8 µg/mL (≈ 17.8 µM); with `CC(C)(C)c1ccc(-c2ccc(C3=C(O)/C(=C/c4cccc(C(F)(F)F)c4)OC3=O)cc2)cc1` [Example 132], 8 µg/mL (≈ 17.2 µM); with `CCOc1ccc(-c2ccc(C3=C(O)/C(=C/c4cccc(C(F)(F)F)c4)OC3=O)cc2)cc1` [Example 133], 16 µg/mL (≈ 35.4 µM).

The next test has as its system Streptococci. The test is described as follows: Minimum inhibitory concentration, microdilution broth method, streptococci. It is filed as cell-based. As to conditions: S. pneumo GC 1894; Mueller-Hinton broth with 5% horse blood, 18-22 hours at 35° C. The essentials: as §3
The molecule `CCOc1ccc(-c2ccc(C3=C(O)/C(=C/c4cc(C(F)(F)F)ccc4Cl)OC3=O)cc2)cc1` [Example 129] yielded an MIC of 0.25 µg/mL (≈ 0.513 µM).
Still for that read-out and setting: with `CCCc1ccc(-c2ccc(C3=C(O)/C(=C/c4cccc(C(F)(F)F)c4)OC3=O)cc2)cc1` [Example 131] the figure was 0.25 µg/mL (≈ 0.555 µM); with `CC(C)(C)c1ccc(-c2ccc(C3=C(O)/C(=C/c4cccc(C(F)(F)F)c4)OC3=O)cc2)cc1` [Example 132], 0.25 µg/mL (≈ 0.538 µM).
The same measure, in the same setting: with `CCOc1ccc(-c2ccc(C3=C(O)/C(=C/c4cccc(C(F)(F)F)c4)OC3=O)cc2)cc1` [Example 133] the figure was 0.5 µg/mL (≈ 1.11 µM).
